The source of these data is patent US20240041853A1, “DOSAGE REGIMEN FOR A NR2B-NMDA RECEPTOR NAM FOR THE TREATMENT OF DEPRESSION” (Novartis AG, priority 2020, published 2024).

For series [1] the following is noted: Garner et al 2015; Pagnozzi et al 1995; Preskorn et al 2008; cited from earlier work.
The subject of series [2] is patients with treatment resistant depression (TRD). In words: Phase IIa proof of concept study, efficacy (MADRS, CGI-I). In kind it is in vivo, human. As to the method:
(§1) A multi-center, randomized, subject and investigator blinded, placebo controlled, active comparator, parallel group, proof of concept study to evaluate the efficacy, safety, tolerability, and pharmacokinetics of Compound (I) in patients with treatment resistant depression (TRD). The study included two different active Compound (I) doses of 0.16 mg/kg and 0.32 mg/kg given in two different regiments—weekly and bi-weekly (every other week). The study also included a ketamine arm.
(§2) Adults with major depressive disorder and prior failure of ≥2 standard antidepressants of adequate dose and >8 weeks duration in a major depressive episode (per DSM-5 criteria) and Montgomery-Åsberg Depression Rating Scale (MADRS) score ≥24 were eligible. Patients were randomized (3:3:3:3:6:4) to one of six treatment arms for 36 days: low dose (0.16 mg/kg) Compound (I) weekly (N=11) or every other week (q2w [N=10]); high dose (0.32 mg/kg) Compound (I) weekly (N=10) or q2w (N=9); placebo (N=20); or ketamine 0.5 mg/kg weekly (N=10). Change in MADRS total score at 24 hours (h) from baseline (primary endpoint), was analyzed using analysis of covariance. Secondary endpoints included change in MADRS score at 48 hours and 6 weeks and clinical global impression-improvement (CGI-I) score at 24 hours, 48 hours and 6 weeks. Safety and tolerability were also assessed.

Series [3] shares this test system. In words: Phase IIa proof of concept study, safety and tolerability (adverse events). In kind it is in vivo, human. The protocol: as §1, §2
Series [4] has as its system patients with unipolar and bipolar depression. The following applies: cited from earlier work.

`C[C@@H]([C@@H](O)c1ccc(O)cc1)N1CCC(O)(c2ccccc2)CC1` [CP-101,606]: the “frequency of dissociative adverse events” value in series [1] is “low frequencies of dissociative adverse events”.
With `Oc1ccc([C@@H](O)CN2C[C@H]3C[C@H](Oc4ccccc4F)C[C@H]3C2)nc1` [Compound (I)], the “time in which efficacy occurred” value in series [2] (0.16 mg/kg or 0.32 mg/kg, weekly or every other week) was at most 24 h. In addition, the “ΔAM [80% CI] in MADRS score vs placebo” value in series [2] (Week 6, 0.16 mg/kg q2w, 80% CI [−11.8, −1.15], p=0.059, greatest benefit) is −6.46. Moreover, the maintenance of efficacy entry in series [2] (after repeated dosing) was “maintained at 6 weeks”. In series [2] (at 24 hours, 48 hours and 6 weeks), the “CGI-I scores vs placebo” value is recorded as “suggested benefits”. In addition, the “Adjusted mean difference (ΔAM) in MADRS vs placebo” value (shortened to “Adjusted mean difference (ΔAM)”) in series [2] (at 24 hours, pooled 0.16 mg/kg, p=0.001) was −8.25; in series [2] (at 24 hours, second pooled Compound (I) group (dose figure missing in print), p=0.019) it was −5.71; in series [2] (at 48 h, pooled 0.16 mg/kg, p=0.013) it was −7.06; in series [2] (at 48 h, second pooled Compound (I) group (dose figure missing in print), p=0.013), −7.37. Also, the “mean decrease in MADRS score” value amounted to 15.51 points in series [2] (at 24 hours, pooled Compound (I) 0.16 mg/kg group (weekly and q2w)); 12.98 points in series [2] (at 24 hours, pooled Compound (I) 0.32 mg/kg group (weekly and q2w)). For the same compound, the “efficacy of 0.16 mg/kg compared with 0.32 mg/kg” value in series [2] (each administered once every week or once every other week) is recorded as “as effective as a dose of 0.32 mg/kg”. The “improvement in MADRS score vs placebo” value in series [2] (patients with TRD, overall conclusion) is given as “significant improvement”. For the same compound, the “Time to both onset and resolution of dissociative AEs and sedation” value in series [3] (in vivo) is “longer for Compound (I) than for ketamine”. Also, the safety signals result in series [3] (in vivo) is listed as “No new safety signals were identified”.
Regarding `Cc1ccc(COC(=O)N2CC[C@H](CNc3ncccn3)[C@H](F)C2)cc1` [MK-0657], in series [1], the “frequency of dissociative adverse events” value is recorded as “low frequencies of dissociative adverse events”.
On to `CNC1(c2ccccc2Cl)CCCCC1=O` (stereo not drawn) [ketamine], for which the “Adjusted mean difference (ΔAM)” value in series [2] (at 24 hours, ketamine 0.5 mg/kg weekly, p=0.046) is given as −5.67. The “mean decrease in MADRS score” value in series [2] (at 24 hours, ketamine group, 0.5 mg/kg weekly) is listed as 12.94 points. The “Adjusted mean difference (ΔAM)” value in series [2] (at 48 h, ketamine 0.5 mg/kg weekly, p=0.019) was −11.02. Further, in series [3] (ketamine 0.5 mg/kg weekly), the “Adverse events (AEs), patients” value is 50%; the “Dissociative AEs, patients” value was determined as 50%; the incidence of sedation is listed as 10%. In addition, in series [4] (Katalinic et al 2013, Murrough et al 2015), the effect on suicidality result is “reduce suicidality”. For the same compound, in series [4] (single dose 0.5 mg/kg infused over 40 minutes, 7 patients, Berman et al 2000), the antidepressant effects result is reported as “rapid antidepressant effects”.
